From the supplement of paper PMC10307832 come the findings set out here.

Common to all, as to assay: relative viability (nuclei count vs DMSO), 5 days (fraction); higher = more cells survive
Compound in experiment [1]: CC(C)CCN1c2nc(Nc3cc(F)c(O)c(F)c3)ncc2N(C)C(=O)C1C [BI-D1870] + CC(=O)c1c(C)c2cnc(Nc3ccc(N4CCNCC4)cn3)nc2n(C2CCCC2)c1=O [Palbociclib] (partner 0.5 µM)
Summed up: (§1)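 Relative viability equals treated-well nuclei counts divided by vehicle-well nuclei counts. Counts came from 4× images of lung cancer cell lines grown in 1536-well plates for 5 days after pin-tool dosing on the day after seeding. Dosing used one drug alone or a fixed anchor-drug dose plus five library-drug doses (not always all listed) in √10 steps, and values are medians of duplicate plates.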

Compound in experiment [2]: CC(C)CCN1c2nc(Nc3cc(F)c(O)c(F)c3)ncc2N(C)C(=O)C1C [BI-D1870] + Cc1nc(NC(=O)N2CCC[C@H]2C(N)=O)sc1-c1ccnc(C(C)(C)C(F)(F)F)c1 [Alpelisib] (partner 2 µM)
Summed up:
as §1

Compound in experiment [3]: O=c1ncccn1[C@@H]1O[C@H](CO)[C@@H](O)[C@H]1O [Zebularine] + CS(=O)(=O)N1CCN(Cc2cc3nc(-c4cccc5[nH]ncc45)nc(N4CCOCC4)c3s2)CC1 [Pictilisib] (partner 1 µM)
Summed up:
as §1

Compound in experiment [4]: O=c1ncccn1[C@@H]1O[C@H](CO)[C@@H](O)[C@H]1O [Zebularine] + Nc1nc2[nH]cc(CCc3ccc(C(=O)N[C@@H](CCC(=O)O)C(=O)O)cc3)c2c(=O)[nH]1 [Pemetrexed] (partner 0.2 µM)
Summed up: as §1

In the case of NCI-H1395, the relative viability in experiment [1] (first compound 0.04 µM) was found to be 0.649; in experiment [1] (first compound 0.1265 µM), 0.603; in experiment [1] (first compound 0.4 µM), 0.64; in experiment [1] (first compound 1.265 µM), 0.717; in experiment [1] (first compound 4 µM), 0.638; in experiment [2] (first compound 0.04 µM), 1.56. The relative viability in experiment [2] (first compound 0.1265 µM) was found to be 1.04; in experiment [2] (first compound 0.4 µM) it was 1.11; in experiment [2] (first compound 1.265 µM) it was 1.05; in experiment [2] (first compound 4 µM), 1.08; in experiment [3] (first compound 1 µM), 0.681; in experiment [3] (first compound 3.162 µM), 0.568. Further, the relative viability in experiment [3] (first compound 10 µM) amounted to 0.493; in experiment [3] (first compound 31.62 µM), 0.606; in experiment [3] (first compound 100 µM) it was 0.42; in experiment [4] (first compound 1 µM), 1.05; in experiment [4] (first compound 3.162 µM) it was 0.787; in experiment [4] (first compound 10 µM), 0.661. Moreover, the figures for the relative viability in experiment [4] (first compound 31.62 µM) and in experiment [4] (first compound 100 µM) were 0.749 and 0.489, respectively.
For NCI-H358, the relative viability was determined as 0.121 in experiment [1] (first compound 0.04 µM); 0.124 in experiment [1] (first compound 0.1265 µM); 0.117 in experiment [1] (first compound 0.4 µM); 0.128 in experiment [1] (first compound 1.265 µM); 0.126 in experiment [1] (first compound 4 µM); 0.964 in experiment [2] (first compound 0.04 µM). Besides, the relative viability in experiment [2] (first compound 0.1265 µM) was found to be 0.745; in experiment [2] (first compound 0.4 µM), 0.852; in experiment [2] (first compound 1.265 µM), 0.663; in experiment [2] (first compound 4 µM), 0.415; in experiment [3] (first compound 1 µM) it was 0.344; in experiment [3] (first compound 3.162 µM) it was 0.28. The relative viability in experiment [3] (first compound 10 µM) stood at 0.395; in experiment [3] (first compound 31.62 µM), 0.325; in experiment [3] (first compound 100 µM), 0.212; in experiment [4] (first compound 1 µM), 0.159; in experiment [4] (first compound 3.162 µM), 0.187; in experiment [4] (first compound 10 µM), 0.161. Moreover, the relative viability in experiment [4] (first compound 31.62 µM) stood at 0.162; in experiment [4] (first compound 100 µM), 0.179.
Consider NCI-H838, for which the relative viability was 0.243 in experiment [1] (first compound 0.04 µM); 0.236 in experiment [1] (first compound 0.1265 µM); 0.232 in experiment [1] (first compound 0.4 µM); 0.262 in experiment [1] (first compound 1.265 µM); 0.209 in experiment [1] (first compound 4 µM); 1.04 in experiment [2] (first compound 0.04 µM). Moreover, the relative viability in experiment [2] (first compound 0.1265 µM) is 0.883; in experiment [2] (first compound 0.4 µM), 0.923; in experiment [2] (first compound 1.265 µM), 1.17; in experiment [2] (first compound 4 µM) it was 1.04; in experiment [3] (first compound 1 µM), 0.463; in experiment [3] (first compound 3.162 µM), 0.457. Besides, the relative viability in experiment [3] (first compound 10 µM) turned out to be 0.422; in experiment [3] (first compound 31.62 µM) it was 0.51; in experiment [3] (first compound 100 µM) it was 0.303; in experiment [4] (first compound 1 µM), 0.259; in experiment [4] (first compound 3.162 µM) it was 0.267; in experiment [4] (first compound 10 µM), 0.234. Besides, the relative viability in experiment [4] (first compound 31.62 µM) came to 0.221; in experiment [4] (first compound 100 µM), 0.17.
With CAL-12T, the relative viability is 0.593 in experiment [1] (first compound 0.04 µM); 0.399 in experiment [1] (first compound 0.1265 µM); 0.34 in experiment [1] (first compound 0.4 µM); 0.336 in experiment [1] (first compound 1.265 µM); 0.203 in experiment [1] (first compound 4 µM); 1.53 in experiment [2] (first compound 0.04 µM). The relative viability was determined as 1.14 in experiment [2] (first compound 0.1265 µM); 1.11 in experiment [2] (first compound 0.4 µM); 1.05 in experiment [2] (first compound 1.265 µM); 0.793 in experiment [2] (first compound 4 µM); 0.509 in experiment [3] (first compound 1 µM); 0.398 in experiment [3] (first compound 3.162 µM). Besides, the relative viability turned out to be 0.482 in experiment [3] (first compound 31.62 µM); 0.364 in experiment [3] (first compound 100 µM); 1.43 in experiment [4] (first compound 1 µM); 1.1 in experiment [4] (first compound 3.162 µM); 0.914 in experiment [4] (first compound 10 µM); 1.18 in experiment [4] (first compound 31.62 µM). In addition, the relative viability in experiment [4] (first compound 100 µM) turned out to be 0.47.
